Assay results reported in ChEMBL document CHEMBL1833833, “Design and synthesis of long acting inhaled corticosteroids for the treatment of asthma” (Bioorg Med Chem Lett, 2011).
Values after ≈ are worked out from the molar mass of the structure shown. Active and inactive are the calls of the source. No cut-off for these calls is given here.

Columns and labels:
PBMC = assay: Inhibition of TNFalpha release in human PBMC by ELISA assay; assay type: functional, cell-based
Blood = assay: Inhibition of TNFalpha release in LPS-stimulated human whole blood by ELISA assay; assay type: functional, tissue-based
[1] = Antiinflammatory activity in rat assessed as inhibition of LPS-induced lung neutrophilia at 10 ug, intratracheally administered 4 hr prior to LPS challenge measured after 1 hr; assay type: functional, Neutrophil
[2] = biological target: T1, Androgen receptor (Homo sapiens) (UniProt P10275); assay: Agonist activity at human AR; assay type: functional
T1 sequence (whole entry): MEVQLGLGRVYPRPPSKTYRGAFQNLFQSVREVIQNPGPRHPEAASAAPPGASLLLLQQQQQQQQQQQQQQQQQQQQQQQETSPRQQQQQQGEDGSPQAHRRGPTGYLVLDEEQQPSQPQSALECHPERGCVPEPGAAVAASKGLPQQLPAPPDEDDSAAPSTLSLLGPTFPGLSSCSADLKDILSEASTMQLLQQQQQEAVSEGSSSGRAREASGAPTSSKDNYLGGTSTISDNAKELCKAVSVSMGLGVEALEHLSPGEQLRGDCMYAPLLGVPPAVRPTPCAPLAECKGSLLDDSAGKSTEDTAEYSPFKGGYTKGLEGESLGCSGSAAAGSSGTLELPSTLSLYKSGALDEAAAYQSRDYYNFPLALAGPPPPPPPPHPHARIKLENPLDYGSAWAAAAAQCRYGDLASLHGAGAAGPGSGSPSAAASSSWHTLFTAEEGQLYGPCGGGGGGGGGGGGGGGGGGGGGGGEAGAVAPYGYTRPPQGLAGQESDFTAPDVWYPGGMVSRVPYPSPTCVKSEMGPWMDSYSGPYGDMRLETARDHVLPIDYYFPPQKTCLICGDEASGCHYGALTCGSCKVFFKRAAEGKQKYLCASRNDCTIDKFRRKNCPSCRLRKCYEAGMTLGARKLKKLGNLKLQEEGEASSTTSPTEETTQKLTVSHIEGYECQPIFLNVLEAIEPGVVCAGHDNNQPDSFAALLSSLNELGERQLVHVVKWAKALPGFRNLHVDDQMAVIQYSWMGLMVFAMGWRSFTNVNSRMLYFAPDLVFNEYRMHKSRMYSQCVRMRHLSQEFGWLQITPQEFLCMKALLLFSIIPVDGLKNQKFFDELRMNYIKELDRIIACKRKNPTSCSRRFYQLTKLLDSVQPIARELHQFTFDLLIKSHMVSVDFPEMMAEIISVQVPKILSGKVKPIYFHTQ

[3] = Oral bioavailability in rat at 2 mg/kg; assay type: ADME, organism-based; conditions: in vivo
[4] = Antiinflammatory activity in rat assessed as inhibition of LPS-induced lung neutrophilia at 10 ug, intratracheally administered 4 hr prior to LPS challenge measured after 8 hrs; assay type: functional, Neutrophil
[5] = biological target: T2, Estrogen receptor (Homo sapiens) (UniProt P03372); assay: Agonist activity at human ER; assay type: functional
T2 sequence (whole entry): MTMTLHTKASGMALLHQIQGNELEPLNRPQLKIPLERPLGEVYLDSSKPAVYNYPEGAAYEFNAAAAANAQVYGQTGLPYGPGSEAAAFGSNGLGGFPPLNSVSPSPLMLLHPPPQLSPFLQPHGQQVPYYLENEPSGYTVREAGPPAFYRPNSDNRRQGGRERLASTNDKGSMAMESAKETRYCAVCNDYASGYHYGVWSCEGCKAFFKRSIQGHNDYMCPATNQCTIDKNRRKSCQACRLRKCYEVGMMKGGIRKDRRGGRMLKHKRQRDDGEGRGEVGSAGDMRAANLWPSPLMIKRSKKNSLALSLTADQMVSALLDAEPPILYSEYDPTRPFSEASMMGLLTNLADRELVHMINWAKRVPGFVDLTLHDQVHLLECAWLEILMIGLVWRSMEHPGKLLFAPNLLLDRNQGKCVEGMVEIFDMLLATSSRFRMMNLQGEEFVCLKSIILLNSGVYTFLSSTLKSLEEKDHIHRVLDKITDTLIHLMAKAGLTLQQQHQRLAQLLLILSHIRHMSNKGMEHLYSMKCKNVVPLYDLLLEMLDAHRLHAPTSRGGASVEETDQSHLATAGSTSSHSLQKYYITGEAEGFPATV

[6] = Antiinflammatory activity in intratracheally dosed rat assessed as effective dose for inhibition of LPS-induced lung neutrophilia; assay type: functional, Neutrophil
[7] = Metabolic stability in human liver microsomes assessed as phase 2 glucuronidation in presence of UDPGA; assay type: ADME, Microsome; conditions: read-out: Stability
[8] = Antiinflammatory activity in rat assessed as inhibition of LPS-induced lung neutrophilia at 10 ug, intratracheally administered 4 hr prior to LPS challenge measured after 4 hrs; assay type: functional, Neutrophil
[9] = Half life in rat; assay type: ADME, organism-based; conditions: in vivo
[10] = Antiinflammatory activity in rat assessed as inhibition of LPS-induced lung neutrophilia at 10 ug, intratracheally administered 4 hr prior to LPS challenge measured after 24 hrs; assay type: functional, Neutrophil
[11] = biological target: T1, Androgen receptor (Homo sapiens); assay: Antagonist activity at human AR; assay type: functional
[12] = biological target: T2, Estrogen receptor (Homo sapiens); assay: Antagonist activity at human ER; assay type: functional
Rattus norvegicus [13] = assay: Clearance in rat at 0.5 mg/kg, iv; assay type: ADME, organism-based; design: dose 0.5 mg/kg, route intravenous; conditions: in vivo
Rattus norvegicus [14] = assay: Unbound clearance in rat at 0.5 mg/kg, iv; assay type: ADME, organism-based; design: dose 0.5 mg/kg, route intravenous; conditions: in vivo
[15] = Solubility of compound in simulated lung fluid by dialysis bag method; assay type: physicochemical
[16] = Metabolic stability of compound in human liver microsomes assessed as intrinsic clearance by equilibrium dialysis; assay type: ADME, Microsome
Glucocorticoid receptor = biological target: T3, Glucocorticoid receptor (Homo sapiens, UniProt P04150)
T3 sequence (P04150 whole entry): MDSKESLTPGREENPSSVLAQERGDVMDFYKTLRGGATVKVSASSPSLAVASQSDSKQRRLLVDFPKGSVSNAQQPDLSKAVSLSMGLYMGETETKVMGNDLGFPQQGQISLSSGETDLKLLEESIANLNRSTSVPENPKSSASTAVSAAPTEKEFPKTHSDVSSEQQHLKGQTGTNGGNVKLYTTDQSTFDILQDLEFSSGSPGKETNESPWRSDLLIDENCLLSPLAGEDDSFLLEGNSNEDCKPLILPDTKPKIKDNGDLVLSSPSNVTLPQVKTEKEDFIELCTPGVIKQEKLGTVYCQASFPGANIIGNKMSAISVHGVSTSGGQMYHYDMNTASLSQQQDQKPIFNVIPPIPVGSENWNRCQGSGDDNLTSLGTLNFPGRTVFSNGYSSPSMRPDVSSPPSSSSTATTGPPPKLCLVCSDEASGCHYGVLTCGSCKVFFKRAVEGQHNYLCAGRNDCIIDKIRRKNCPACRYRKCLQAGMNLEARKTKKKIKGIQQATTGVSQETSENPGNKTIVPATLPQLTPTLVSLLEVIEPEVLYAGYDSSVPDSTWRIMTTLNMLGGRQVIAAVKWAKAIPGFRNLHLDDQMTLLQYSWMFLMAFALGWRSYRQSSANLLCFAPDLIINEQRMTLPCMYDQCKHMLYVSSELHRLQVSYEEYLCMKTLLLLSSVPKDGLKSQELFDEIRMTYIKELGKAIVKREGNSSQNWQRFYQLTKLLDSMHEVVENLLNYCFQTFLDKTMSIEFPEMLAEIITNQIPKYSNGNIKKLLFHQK
Description: Agonist activity at GR in human SW1353 cells transfected with luciferase gene linked to MMTV promoter assessed as luciferase transactivation activity

[17] = biological target: T4, Glucocorticoid receptor (Homo sapiens) (UniProt P04150)
T4 sequence (whole entry): T3 sequence (P04150 whole entry)
Description: Agonist activity at human GR assessed as dissociation half life

[18] = Antiinflammatory activity in rat assessed as inhibition of LPS-induced lung neutrophilia 10 ug, intratracheally administered 1 hr prior to LPS challenge measured after 8 hrs; assay type: functional, Neutrophil
Rattus norvegicus [19] = assay: Antiinflammatory activity in rat assessed as inhibition of LPS-induced lung neutrophilia 10 ug, intratracheally administered 1 hr prior to LPS challenge measured after 2 hrs; assay type: functional
Rattus norvegicus [20] = assay: Antiinflammatory activity in rat assessed as inhibition of LPS-induced lung neutrophilia 10 ug, intratracheally administered 1 hr prior to LPS challenge measured after 1 hr; assay type: functional
[21] = Antiinflammatory activity in rat assessed as inhibition of LPS-induced lung neutrophilia 10 ug, intratracheally administered 1 hr prior to LPS challenge measured after 4 hrs; assay type: functional, Neutrophil
[22] = Antiinflammatory activity in rat assessed as effective dose for inhibition of LPS-induced lung neutrophilia administered intratracheally 4 hr prior to LPS challenge; assay type: functional, Neutrophil
Liver microsomes = assay: Metabolic stability of compound in human liver microsomes assessed as unbound intrinsic clearance by equilibrium dialysis; assay type: ADME, Microsome

C[C@]12C=CC(=O)C=C1[C@@H](F)C[C@H]1[C@@H]3C[C@H]4O[C@@H](c5ccc(CSc6ccc(O)cc6)cc5)O[C@@]4(C(=O)CO)[C@@]3(C)C[C@H](O)[C@@]12F
IC50 (PBMC): 0.06 nM

CCCC1O[C@@H]2C[C@H]3[C@@H]4CCC5=CC(=O)C=C[C@]5(C)[C@H]4[C@@H](O)C[C@]3(C)[C@]2(C(=O)CO)O1 (stereo partly drawn) [BUDESONIDE]
IC50 (PBMC): 0.96 nM
IC50 (Blood): 8.46 nM

C[C@]12C=CC(=O)C=C1[C@@H](F)C[C@H]1[C@@H]3C[C@H]4O[C@@H](c5ccc(CSc6ccc(O)c(Cl)c6)cc5)O[C@@]4(C(=O)CO)[C@@]3(C)C[C@H](O)[C@@]12F
inhibition (INH) [1]: 52%
Activity [2]: inactive
bioavailability [3]: < 1%
inhibition (INH) [4]: 46%
Activity [5]: inactive
ED50 [6]: 36 µg
microsomal CLint [7]: 100 µL/min/mg
IC50 (PBMC): 0.03 nM
inhibition (INH) [8]: 59%
half-life [9]: 2.8 h
inhibition (INH) [10]: 24%
Activity [11]: inactive
Activity [12]: inactive
clearance (Rattus norvegicus [13]): 84 mL/min/kg
CL free (Rattus norvegicus [14]): > 59000 mL/min/kg
solubility [15]: 0.36 µg/mL (≈ 0.535 µM)
microsomal CLint [16]: 122 µL/min/mg
IC50 (Blood): 8.73 nM

C[C@]12C=CC(=O)C=C1[C@@H](F)C[C@H]1[C@@H]3C[C@H]4O[C@@H](c5ccc(-c6ccccc6)cc5)O[C@@]4(C(=O)CO)[C@@]3(C)C[C@H](O)[C@@]12F
IC50 (PBMC): 0.41 nM

C[C@@H]1C[C@H]2[C@@H]3C[C@H](F)C4=CC(=O)C=C[C@]4(C)[C@@]3(F)[C@@H](O)C[C@]2(C)[C@@]1(OC(=O)c1ccco1)C(=O)SCF [FLUTICASONE FUROATE]
IC50 (PBMC): 0.05 nM
IC50 (Blood): 43 nM

C[C@]12C=CC(=O)C=C1[C@@H](F)C[C@H]1[C@@H]3C[C@H]4O[C@@H](c5ccc(OC6=CCC(=O)N=N6)cc5)O[C@@]4(C(=O)CO)[C@@]3(C)C[C@H](O)[C@@]12F
EC50 (Glucocorticoid receptor): 21.1 nM
IC50 (PBMC): 0.12 nM

C[C@]12C=CC(=O)C=C1[C@@H](F)C[C@H]1[C@@H]3C[C@H]4O[C@@H](c5ccc(Oc6ccccc6)cc5)O[C@@]4(C(=O)CO)[C@@]3(C)C[C@H](O)[C@@]12F
IC50 (PBMC): 0.09 nM

CCC(=O)O[C@]1(C(=O)SCF)[C@H](C)C[C@H]2[C@@H]3C[C@H](F)C4=CC(=O)C=C[C@]4(C)[C@@]3(F)[C@@H](O)C[C@@]21C [FLUTICASONE PROPIONATE]
bioavailability [3]: < 2%
T1/2 [17]: 9.07 h
inhibition (INH) [18]: 10%
inhibition (INH) (Rattus norvegicus [19]): 11%
microsomal CLint [7]: < 3.5 µL/min/mg
IC50 (PBMC): 0.1 nM
inhibition (INH) (Rattus norvegicus [20]): 29%
half-life [9]: 1.1 h
inhibition (INH) [21]: 8%
ED50 [22]: 3 µg
clearance (Rattus norvegicus [13]): 56 mL/min/kg
CL free (Liver microsomes): 300 µL/min/mg
CL free (Rattus norvegicus [14]): 1800 mL/min/kg
solubility [15]: 0.32 µg/mL (≈ 0.639 µM)
microsomal CLint [16]: 51 µL/min/mg
IC50 (Blood): 9.3 nM

C[C@]12C=CC(=O)C=C1[C@@H](F)C[C@H]1[C@@H]3C[C@H]4O[C@@H](c5ccc(CSc6ccccc6)cc5)O[C@@]4(C(=O)CO)[C@@]3(C)C[C@H](O)[C@@]12F
IC50 (PBMC): 0.22 nM

C[C@]12C=CC(=O)C=C1[C@@H](F)C[C@H]1[C@@H]3C[C@H]4O[C@@H](c5ccc(Cc6ccccc6)cc5)O[C@@]4(C(=O)CO)[C@@]3(C)C[C@H](O)[C@@]12F
IC50 (PBMC): 0.17 nM

CSc1cccc(Sc2ccc([C@@H]3O[C@@H]4C[C@H]5[C@@H]6C[C@H](F)C7=CC(=O)C=C[C@]7(C)[C@@]6(F)[C@@H](O)C[C@]5(C)[C@]4(C(=O)CO)O3)cc2)c1
bioavailability [3]: < 0.5%
microsomal CLint [7]: < 3.5 µL/min/mg
IC50 (PBMC): 0.1 nM
half-life [9]: 1.9 h
clearance (Rattus norvegicus [13]): 26 mL/min/kg
CL free (Liver microsomes): > 3080 µL/min/mg
CL free (Rattus norvegicus [14]): > 18000 mL/min/kg
microsomal CLint [16]: 154 µL/min/mg
IC50 (Blood): 47.4 nM

C[C@]12C=CC(=O)C=C1[C@@H](F)C[C@H]1[C@@H]3C[C@H]4O[C@@H](c5ccc(Cc6ccc(O)cc6)cc5)O[C@@]4(C(=O)CO)[C@@]3(C)C[C@H](O)[C@@]12F
IC50 (PBMC): 0.04 nM

C[C@]12C=CC(=O)C=C1[C@@H](F)C[C@H]1[C@@H]3C[C@H]4O[C@@H](c5ccc(SCc6ccccc6)cc5)O[C@@]4(C(=O)CO)[C@@]3(C)C[C@H](O)[C@@]12F
IC50 (PBMC): 0.16 nM

C[C@]12C=CC(=O)C=C1[C@@H](F)C[C@H]1[C@@H]3C[C@H]4O[C@@H](c5ccc(CN6CCOCC6)cc5)O[C@@]4(C(=O)CO)[C@@]3(C)C[C@H](O)[C@@]12F
IC50 (PBMC): 1.81 nM

C[C@]12C=CC(=O)C=C1[C@@H](F)C[C@H]1[C@@H]3C[C@H]4O[C@@H](c5ccc(CSc6cccc(O)c6)cc5)O[C@@]4(C(=O)CO)[C@@]3(C)C[C@H](O)[C@@]12F
IC50 (PBMC): 0.15 nM
